Measurements as given in patent US10335400B2, “Treatment of tauopathies with mGluR5 antagonists” (priority 2014, dated 2019).

How the values were obtained:
[1] = tested on: PP2A; experiment: PP2A activity (phosphatase ELISA) and PP2Ac protein level in BMAA-treated mouse mixed primary neuronal cultures; format: cell-based; conditions: BMAA 100 μM to 1 mM, 3-48 h
Procedure: Mouse hippocampal neuronal cultures were prepared from d 18 embryos as previously described (1). Briefly, C57BL/6 pregnant female mice from Charles River Laboratories were killed by cervical dislocation. All studies were performed in accordance with the recommendations in the Guide for the Care and Use of Laboratory Animals of the National Institutes of Health (2). The protocol was approved by Institutional Animal Care and Use Committee of the New York Institute for Basic Research in Developmental Disabilities. All surgeries were performed under anesthesia, and all efforts were made to minimize suffering. Embryos were removed and placed in cold Hibernate A (BrainBits, LLC), and all the following steps were performed in ice-cold Hibernate A, under a stereoscopic (dissection) microscope placed in a laminar flow hood. Fetal brains were removed carefully, and forebrains were separated. The hippocampus, including the cortex surrounding the area of the hippocampus, was dissected and cut into small pieces using microsurgical scissors. […]
PP2A activity was assayed with homogenate of rat brain slices using the phosphatase ELISA described previously (5). […] Finally 75 μL of 3,3′,5,5′-Tetramethylbenzidine substrate reagent (Sigma) was added, and the colorimetric development was measured using a microtiter plate reader at a wavelength of 650 nm. […]

[2] = tested on: tau; experiment: Tau phosphorylation (Western blots, immunofluorescence) in mouse hippocampal primary neurons; format: cell-based
Procedure: Mouse hippocampal neuronal cultures were prepared from d 18 embryos as previously described (1). Briefly, C57BL/6 pregnant female mice from Charles River Laboratories were killed by cervical dislocation. All studies were performed in accordance with the recommendations in the Guide for the Care and Use of Laboratory Animals of the National Institutes of Health (2). The protocol was approved by Institutional Animal Care and Use Committee of the New York Institute for Basic Research in Developmental Disabilities. All surgeries were performed under anesthesia, and all efforts were made to minimize suffering. Embryos were removed and placed in cold Hibernate A (BrainBits, LLC), and all the following steps were performed in ice-cold Hibernate A, under a stereoscopic (dissection) microscope placed in a laminar flow hood. Fetal brains were removed carefully, and forebrains were separated. The hippocampus, including the cortex surrounding the area of the hippocampus, was dissected and cut into small pieces using microsurgical scissors. The cut tissue was transferred with number 5 forceps to 15-mL tubes containing 0.1% trypsin in Versene (Invitrogen Life Technologies) and was incubated for 15 min at 37° C. followed by inactivation with 10% (vol/vol) FBS in Neurobasal complete medium (Neurobasal Medium supplemented with 2×B-27, 0.30% glutamine, 10% FBS, and penicillin/streptomycin, 0.1 mg/mL and 0.1 U/mL respectively). After 3 d, the cells were grown with Neurobasal medium supplemented with only 2×B-27. This procedure typically yields cultures that contain 70-75% neurons and […] supporting cells (3). The cultures were maintained at 37° C. in a humidified atmosphere containing 5% CO2 for 8 or 9 d before experimentation. Every 72 h, the medium was replaced with fresh medium. All medium components were purchased from Invitrogen. The neuronal transfection was performed using Lipofectamine LTX and Plus reagent at 5 d in vitro according to the manufacturer's instructions (Invitrogen). The cells were processed for immunofluorescent staining 3 d after transfection.
Protein was fractionated by 10% SDS/PAGE, transferred to PVDF membrane, and then blocked with 5% skim milk for 1 h at room temperature. The membrane was probed with anti-IPP2A (5G6, 1:1, 500) (7), anti-I2P2A (10E7, 1:1, 600) (7), anti-tau ˜92e; 1:5,000) (8), anti-tau (R134d; 1:5 000) (9), anti-tau pSer^262/^356 (12E8; 1:500) (10, anti-tau pSer^199, anti-tau pThr^205, anti-tau pThr^212, and pSer^396 (1:1,000) (Biosource), anti-GAPDH (1:2,000) (Santa Cruz Biotechnology), anti-PP2Ac (1:10 000) (BD Transduction Lab), anti pY^307-PP2A and anti-DML^309-PP2A (1:1,000) (Millipore), anti-GSK-3(α/β), anti-pS^9-GSK-3 β, anti-ERK1/2, anti-pT^202/Y^204-ERK1/2, anti-MEK1/2, anti-p9^17/221-MEK1/2, anti-CAMKII, anti-pT^286-CAMKII, anti-p70 S6 kinase, anti-pT^389-p70 S6 kinase, anti-SAPK/JNK, and anti-pT^183/Y^185-SAPK/JNK (1:1,000) (Cell Signaling Technology). The membrane then was incubated with HRP-conjugated secondary antibody (Jackson ImmunoResearch). The protein bands were detected with the enhanced chemiluminescence reagents (Thermo Scientific). Band intensity was measured by Multi-Gauge V3 software (Fuji Photo Film).
Primary hippocampal neuronal cultures grown on four-chamber glass slides were fixed in cold 4% (wt/vol) paraformaldehyde for 15 min and permeabilized in 0.1% Triton X-100 for 15 min followed by incubation in 5% goat serum to block the nonspecific staining for 1 h. The cells then were probed with 12E8 (1:200) overnight at 4° C. Alexa-488-conjugated anti-mouse secondary antibody (1:500) (Jackson Laboratory) was used for fluorescent labeling. The cells on slides were rinsed with PBS, mounted with Fluorogel (Electron Microscopy Sciences) and examined under laser confocal microscope (Nikon Eclipse 90i). […]

[3] = tested on: motor neurons; conditions: cited from earlier work
[4] = BMAA 1 mM vs controls, Western blots, P<0.01
[5] = BMAA 1 mM vs controls, Western blots, P<0.05

In the case of `CNC[C@H](N)C(=O)O` [BMAA, β-N-methylamino-L-alanine], the PP2A activity [1] is reported as “significantly decreased”, the “hyperphosphorylation of tau at Ser396” value ([2]; BMAA 1 mM vs controls, Western blots) is reported as “not at Ser^396” and the “hyperphosphorylation of tau at Ser262/356 (12E8 site)” value [2, 4] is reported as “significantly increased”. For the same molecule, the “hyperphosphorylation of tau at Thr205” value [2, 4] was “significantly increased”, the “hyperphosphorylation of tau at Ser199” value [2, 5] was “significantly increased” and the “hyperphosphorylation of tau at Thr212” value [2, 5] was “significantly increased”. For the same molecule, the “expression of tau phosphorylated at Ser262/356” value ([2]; immunohistofluorescent analysis, 12E8 staining, BMAA-treated primary neurons) was “increased” and the “BMAA concentration causing selective death of motor neurons” value [3] was no less than 30 µM.
